The source of these data is US5391540A, “Substituted pyridine compounds” (Rohm and Haas Company, priority 1993, dated 1995).

For orientation: inhibition means the percentage by which the read-out fell short of the control.

What all share (test): Pre-emergent herbicidal activity (Table A)
Assay type in all cases: in vivo

The subject of one experiment is Annual Bluegrass. To be noted: pre-emergence, Anbg, 11.2 kg/ha, 10-14 days, read-out: herbicidal rating (% inhibition). On the procedure: (§1) Tables A and B summarize results of tests conducted to determine the pre-emergent herbicidal activity of the compounds of this invention. The herbicidal ratings used in Tables A and B were assigned according to a scale based on the percent inhibition of each plant species. The herbicide rating symbols in Tables A and B are defined as follows: […]
(§2) One set of pre-emergent tests was conducted as follows:
(§3) Topsoil was placed in a pan and compacted to a depth of 0.95 to 1.27 cm. from the top of the pan. A predetermined number of seeds of each of several monocotyledonous and dicotyledonous annual plant species and/or vegetative propagules of various perennial plant species were placed on top of the soil. The soil required to level fill a pan after seeding or adding vegetative propagules was weighed into another pan. A known amount of the test compound dissolved or suspended in an organic solvent or water and applied in acetone or water as a carrier was thoroughly mixed with this cover soil, and the herbicide/soil mixture was used as a cover layer for the previously prepared pan. In Table A below the amounts of active ingredient were all equivalent to an application rate of 11.2 kilograms/hectare (kg/ha). After treatment, the pans were moved to a greenhouse bench where they were watered as needed to give adequate moisture for germination and growth.
(§4) Approximately 10-14 days (usually 11 days) after planting and treating, the plants were observed and the results recorded.
(§5) The plant species usually regarded as weeds which were utilized in one set of pre-emergent activity tests, the data for which are shown in Table A, are identified by letter headings printed diagonally above the columns according to the following legend: […]

A further experiment deals with Indian Mustard. The settings on record: Brassica juncea, pre-emergence, Inmu, 11.2 kg/ha, 10-14 days, read-out: herbicidal rating (% inhibition). On the procedure:
as §1, §2, §3, §4, §5

For a further experiment, the system named is Seedling Johnsongrass. To be noted: Sorghum halepense, pre-emergence, Sejg, 11.2 kg/ha, 10-14 days, read-out: herbicidal rating (% inhibition). On the procedure: as §1, §2, §3, §4, §5
For a further experiment, the system named is Wild Buckwheat. The settings on record: Fallopia convolvulus, pre-emergence, Wibw, 11.2 kg/ha, 10-14 days, read-out: herbicidal rating (% inhibition). On the procedure: as §1, §2, §3, §4, §5
For another experiment, the system named is Barnyardgrass. To be noted: Echinochloa crus-galli, pre-emergence, Bygr, 11.2 kg/ha, 10-14 days, read-out: herbicidal rating (% inhibition). The method, boiled down:
(§6)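 Percent inhibition per species, scored on a rating scale, after pre-emergent soil incorporation: test compound in acetone or water carrier mixed into cover soil, layered over seeded topsoil or vegetative propagules.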

The test system of another experiment is Cocklebur. The settings on record: Xanthium strumarium, pre-emergence, Cobu, 11.2 kg/ha, 10-14 days, read-out: herbicidal rating (% inhibition). Summed up: as §6
The test system of a further experiment is Downy Brome. To be noted: Bromus tectorum, pre-emergence, Dobr, 11.2 kg/ha, 10-14 days, read-out: herbicidal rating (% inhibition). Summed up:
as §6

A further experiment concerns Morningglory. The settings on record: Ipomoea, pre-emergence, Mogl, 11.2 kg/ha, 10-14 days, read-out: herbicidal rating (% inhibition). Summed up: as §6
The next experiment relates to Velvetleaf. The settings on record: Abutilon theophrasti, pre-emergence, Vele, 11.2 kg/ha, 10-14 days, read-out: herbicidal rating (% inhibition). The method, boiled down: as §6
In a further experiment the test system is Yellow Nutsedge. The settings on record: Cyperus, pre-emergence, Yens, 11.2 kg/ha, 10-14 days, read-out: herbicidal rating (% inhibition). The method, boiled down:
as §6

With `C=C1CC(c2c(C(F)(F)F)nc(OC)c(C(=O)OC)c2CC(C)C)OC1=O` (stereo not drawn) [Compound 90, 3-pyridinecarboxylic acid, 5-(tetrahydro-4-methylene-5-oxo-2-furanyl)-2-methoxy-4-(2-methylpropyl)-6-(trifluoromethyl)-, methyl ester], the inhibition at 11200 g/ha with Annual Bluegrass was 75 to 100%; with Indian Mustard it was 0 to 24%; with Seedling Johnsongrass, 25 to 49%; in the experiment on Wild Buckwheat it was 0 to 24%; with Barnyardgrass, 50 to 74%; with Cocklebur, 0 to 24%. Also, the inhibition at 11200 g/ha in the experiment on Downy Brome was in the range of 50 to 74%; in the experiment with Morningglory, 0 to 24%; in the experiment on Velvetleaf, 0 to 24%; in the experiment on Yellow Nutsedge, 0 to 24%.
On to `COC(=O)c1c(OC)nc(C(F)(F)F)c(C2SCCCS2)c1CC(C)C` [Compound 94, 3-pyridinecarboxylic acid, 5-(1,3-dithian-2-yl)-2-methoxy-4-(2-methylpropyl)-6-(trifluoromethyl)-, methyl ester], for which the inhibition at 11200 g/ha in the experiment on Annual Bluegrass lay within 75 to 100%; with Indian Mustard it was 75 to 100%; in the experiment on Seedling Johnsongrass it was 75 to 100%; in the experiment on Wild Buckwheat it was 75 to 100%; in the experiment on Barnyardgrass it was 75 to 100%; in the experiment on Cocklebur it was 25 to 49%. Also, the inhibition at 11200 g/ha with Downy Brome lay within 50 to 74%; in the experiment with Morningglory, 75 to 100%; in the experiment on Velvetleaf it was 75 to 100%; in the experiment with Yellow Nutsedge it was 0 to 24%.
With `COC(=O)c1c(OC)nc(C(F)(F)F)c(C(Cl)=NCCCl)c1CC(C)C` [Compound 95, 3-pyridinecarboxylic acid, 5-[(chloro[2-chloroethyl)imino)methyl]-2-methoxy-4-(2-methylpropyl)-6-(trifluoromethyl)-, methyl ester], the inhibition at 11200 g/ha in the experiment with Annual Bluegrass lay in the range of 75 to 100%; in the experiment on Indian Mustard, 50 to 74%; with Seedling Johnsongrass it was 75 to 100%; with Wild Buckwheat, 75 to 100%; in the experiment with Barnyardgrass, 75 to 100%; in the experiment on Cocklebur, 0 to 24%. Further, the inhibition at 11200 g/ha in the experiment with Downy Brome is 25 to 49%; in the experiment on Morningglory, 0 to 24%; in the experiment on Velvetleaf, 50 to 74%; with Yellow Nutsedge it was 0 to 24%.
As for `COC(=O)c1c(OC(Cl)(Cl)Cl)nc(C(F)(F)F)c(C(=O)OC)c1CC(C)C` [Compound 96, 3,5-pyridinedicarboxylic acid, 4-(2-methylpropyl)-2-(trichloromethoxy)-6-(trifluoromethyl)-, dimethyl ester], the inhibition at 11200 g/ha fell in the range of 75 to 100% with Annual Bluegrass; 75 to 100% in the experiment on Indian Mustard; 75 to 100% in the experiment on Seedling Johnsongrass; 75 to 100% in the experiment with Wild Buckwheat; 75 to 100% with Barnyardgrass; 0 to 24% in the experiment on Cocklebur. Also, the inhibition at 11200 g/ha fell in the range of 50 to 74% in the experiment on Downy Brome, 75 to 100% in the experiment with Morningglory, 75 to 100% in the experiment with Velvetleaf and 0 to 24% in the experiment with Yellow Nutsedge.
On to `COC(=O)c1c(OC)nc(C(F)(F)F)c(NC(=O)CCCBr)c1CC(C)C` [Compound 120, 3-pyridinecarboxylic acid, 5-[(4-bromo-1-oxobutyl)amino]-2-methoxy-4-(2-methylpropyl)-6-(trifluoromethyl)-, methyl ester], for which the inhibition at 11200 g/ha in the experiment on Annual Bluegrass, in the experiment on Seedling Johnsongrass, in the experiment with Barnyardgrass, in the experiment on Cocklebur, with Downy Brome and in the experiment with Morningglory was 75 to 100% throughout. The inhibition at 11200 g/ha with Velvetleaf fell in the range of 75 to 100%; in the experiment on Yellow Nutsedge, 50 to 74%.
